Series [1] deals with CL097 triggered TNFα release in human whole blood. As to the kind of experiment: Ex vivo human TNFα release inhibition (human whole blood assay). Type of series: cell-based. The settings on record: CL097 2 μg/mL, 3 h 30 min at 37° C. The text has this:
4.10.1. Ex Vivo Human IFNα and TNFα Release Inhibition (Human Whole Blood Assay)
The aim of the assay is to evaluate the activity of compounds of the invention on the activated TLR/IRAK-4 pathway in an ex vivo human whole blood setting. Toll-like receptors (TLRs) are pattern recognition receptors that recognize a wide variety of microbial molecules, called pathogen-associated molecular patterns (PAMPs). Human TLR7 and TLR8 recognize imidazoquinoline compounds (e.g., CL097—CAS n #1026249-18-2) and single stranded RNAs as their natural ligands. Activation of TLRs leads to the production of several cytokines (e.g., IFNα, TNFα, IL-8, IL-6) by the TLR agonist-treated cells, whereas IRAK4 leads to the production of IFNα. Cytokine release is used as readout in this assay and represents a measure for the level of inhibition of the TLR/IRAK-4 pathway by the tested compound. It should be noted that in the context of the complete organism, other sources for these cytokines exist that are not dependent on the TLR/IRAK-4 pathway, such as e.g., macrophages (upon activation of the Fcγ receptor (Yan et al., 2012)) or T cells (upon activation of the T cell receptor (Brehm et al., 2005)).
4.10.1.1. Experimental Design
Blood was collected from healthy volunteers into lithium heparin tubes by venipuncture, then gently inverted several times to prevent clotting and incubated for at least 15 min at 37° C. on a rocking mixer shaker. Then, 100 μL of blood was dispensed into polypropylene 96-well microplate and pre-incubated in duplicate with 0.3% DMSO or test compound at different concentrations (from 30 to 0.01 μM, 3-fold dilutions to get 0.3% DMSO at the final) for 15 min at 37° C. After this pre-incubation, blood was triggered with CL097 (2 μg/mL from 1 mg/mL solution in water; InvivoGen, tlrl-c97) for 3 h 30 min at 37° C. Microtubes were centrifuged at 5000×g for 10 min at 4° C. and approximately 40 μL of plasma were collected into a polystyrene 96-well plate. Plasma could be analyzed freshly, within 30 min after triggering, or frozen at −80° C. Finally, the quantification of TNFα and IFNα were performed in the plasma using AlphaLISA Kit for TNFα and IFNα according to the manufacturer's instructions and read on the Ensight (PerkinElmer).
For each blood sample, the TNFα concentrations of the samples were determined from the fit. Data were then expressed a percentage of inhibition PIN for each replicate using the formula:
With mean TNFα with CL097=mean TNFα concentration of replicate samples triggered with CL097; TNFαsample1=TNFα concentration of sample 1; mean TNFα with vehicle=mean TNFα concentration of replicate samples treated with vehicle.
Curve fitting for pIC50 determination were generated using mean PIN±sem. Graphs and pIC50 calculations were derived using Prism 5.03 software (GraphPad).

Another series relates to Mouse Hepatocyte. As to the kind of experiment: Metabolic stability in hepatocytes (mouse). Type of series: in vitro ADME. Conditions: 1 μM test compound, cryopreserved mouse hepatocytes. On the procedure:
4.6. Metabolic Stability in Hepatocytes
The aim of this assay is to determine the metabolic stability of the compound in hepatocytes (cryopreserved) of different species. Low hepatocyte stability may result in the formation of unwanted metabolites, high clearance, and therefore is not desirable.
The decrease in parent was assessed by measuring the percentage remaining by LC-MS/MS analysis.
A 10 mM stock solution of test compound in DMSO was first diluted in DMSO to 3 mM, and then in modified Krebs-Henseleit buffer (Sigma, K3753) to 5 μM. This compound dilution was added to a suspension of pooled cryopreserved hepatocytes (BioreclamationIVT) at 37° C. under gentle shaking.
Final reaction conditions were: 1 μM of test compound, 0.03% DMSO, 0.5 million viable hepatocytes/mL, and 75 μL incubation volume.
Testosterone (1 μM) and 7-hydroxycoumarin (1 μM) were used, respectively as phase I and phase II metabolic reaction controls.
After 0, 10, 20, 45, 90, 120 and 180 min of incubation, the reaction was terminated with 225 μL of MeCN:MeOH (2:1) containing 100 ng/mL of diclofenac as analytical internal standard. Samples were mixed, centrifuged and the supernatant analyzed by LC-MS/MS.
The instrument responses (ratios of test compound and internal standard peak areas) were referenced to the zero time point samples (considered as 100%) in order to determine the percentage of compound remaining.
Plots of percentage compound remaining were used to determine the intrinsic clearance in the hepatocyte incubations using the following equations:
Scaled Clint [L/h/kg]=Clint[μL/min/10^6 cells]*#(10^6) cells/g liver*60*( 1/10^6) Scaled Clint unbound [L/h/kg]=Clint [L/h/kg]/Fu,inc where: fu,inc equals hepatocyte binding, derived from microsomal binding (fu,mic) by following equation: […]

19 compounds from patent publication US20220218679A1, “NOVEL COMPOUNDS AND PHARMACEUTICAL COMPOSITIONS THEREOF FOR THE TREATMENT OF INFLAMMATORY DISORDERS” (Galapagos NV, priority 2019, published 2022) can be followed below.

What is called IC50 is the concentration that gives 50% inhibition. Low readings indicate higher potency, high ones lower potency. Compound `COc1cn2nc(CC(F)C(C)(C)O)cc2cc1NC(=O)c1cccn(C2CC2)c1=O` (single isomer, unassigned; enantiomer a) [Compound 25, 1-cyclopropyl-N-[2-(2-fluoro-3-hydroxy-3-methyl-butyl)-6-methoxy-pyrazolo[1,5-a]pyridin-5-yl]-2-oxo-pyridine-3-carboxamide Enantiomer A] registered an IC50 in series [1] (Homo sapiens) of 500 to 1000 nM.

In turn, `COc1cn2nc(CC(F)C(C)(C)O)cc2cc1NC(=O)c1cccn(C2CC2)c1=O` (single isomer, unassigned; enantiomer b) [Compound 26, 1-cyclopropyl-N-[2-(2-fluoro-3-hydroxy-3-methyl-butyl)-6-methoxy-pyrazolo[1,5-a]pyridin-5-yl]-2-oxo-pyridine-3-carboxamide Enantiomer B] registered an IC50 in series [1] of 1000 to 5000 nM.

Regarding `COc1cn2nc(CCC(C)(C)O)cc2cc1NC(=O)c1cccn(C2CC2)c1=O` [Compound 1, 1-cyclopropyl-N-[2-(3-hydroxy-3-methylbutyl)-6-methoxypyrazolo[1,5-a]pyridin-5-yl]-2-oxopyridine-3-carboxamide], in series [1] (Homo sapiens), the half-maximal inhibitory concentration (IC50) was 0.1 to 500 nM. For the same compound, in the series with Mouse Hepatocyte, the “Mouse Hepatocyte stability (Perc. remaining at 90 min)” value is reported as 99.45 Perc.

With `COc1cn2nc(CCC(C)(C)O)cc2cc1NC(=O)c1cccn(C)c1=O` [Compound 2, N-[2-(3-hydroxy-3-methylbutyl)-6-methoxypyrazolo[1,5-a]pyridin-5-yl]-1-methyl-2-oxopyridine-3-carboxamide], in series [1] (Homo sapiens), the half-inhibitory concentration (IC50) lay within 0.1 to 500 nM. In the series with Mouse Hepatocyte, the “Mouse Hepatocyte stability (Perc. remaining at 90 min)” value came to 94.1 Perc.

Regarding `COc1cn2nc(CCC(C)(C)O)cc2cc1NC(=O)c1cccc(C(F)(F)F)n1` [Compound 3, N-[2-(3-hydroxy-3-methylbutyl)-6-methoxypyrazolo[1,5-a]pyridin-5-yl]-6-(trifluoromethyl)pyridine-2-carboxamide], in series [1] (Homo sapiens), the 50% inhibitory concentration (IC50) lay in the range of 1000 to 5000 nM. In addition, the “Mouse Hepatocyte stability (Perc. remaining at 90 min)” value with Mouse Hepatocyte was found to be 10.17 Perc.

In turn, `CC(C)(O)CCc1cc2cc(NC(=O)c3cccc(C(F)(F)F)n3)c(C(N)=O)cn2n1` [Compound 4, 2-(3-hydroxy-3-methylbutyl)-5-[[6-(trifluoromethyl)pyridine-2-carbonyl]amino]pyrazolo[1,5-a]pyridine-6-carboxamide] had a concentration for half-maximal inhibition (IC50) in series [1] (Homo sapiens) of 0.1 to 500 nM.

In turn, `CNC(=O)c1cn2nc(CCC(C)(C)O)cc2cc1NC(=O)c1cccc(C(F)(F)F)n1` [Compound 5, 2-(3-hydroxy-3-methylbutyl)-N-methyl-5-[[6-(trifluoromethyl)pyridine-2-carbonyl]amino]pyrazolo[1,5-a]pyridine-6-carboxamide] showed an IC50 in series [1] (Homo sapiens) of 1000 to 5000 nM. The “Mouse Hepatocyte stability (Perc. remaining at 90 min)” value in the series on Mouse Hepatocyte stood at 76.25 Perc.

As to `COc1cn2nc(CCC(C)(C)O)cc2cc1NC(=O)c1cccn(C(F)F)c1=O` [Compound 7, 1-(difluoromethyl)-N-[2-(3-hydroxy-3-methyl-butyl)-6-methoxy-pyrazolo[1,5-a]pyridin-5-yl]-2-oxo-pyridine-3-carboxamide], in series [1] (Homo sapiens), the IC50 is 1000 to 5000 nM. Further, the “Mouse Hepatocyte stability (Perc. remaining at 90 min)” value with Mouse Hepatocyte is reported as 108.25 Perc.

On to `CNC(=O)c1cn2nc(C3CCCS(=O)(=O)C3)cc2cc1NC(=O)c1cccc(C(F)(F)F)n1` (stereo not drawn) [Compound 8, 2-(1,1-dioxothian-3-yl)-N-methyl-5-[[6-(trifluoromethyl)pyridine-2-carbonyl]amino]pyrazolo[1,5-a]pyridine-6-carboxamide], for which the “Mouse Hepatocyte stability (Perc. remaining at 90 min)” value with Mouse Hepatocyte was 75.15 Perc.

On to `CCOc1cn2nc(CCC(C)(C)O)cc2cc1NC(=O)c1cccn(C(F)F)c1=O` [Compound 9, 1-(difluoromethyl)-N-[6-ethoxy-2-(3-hydroxy-3-methyl-butyl)pyrazolo[1,5-a]pyridin-5-yl]-2-oxo-pyridine-3-carboxamide], for which the IC50 in series [1] (Homo sapiens) was in the range of 500 to 1000 nM. Besides, the “Mouse Hepatocyte stability (Perc. remaining at 90 min)” value with Mouse Hepatocyte is 83.65 Perc.

Compound `CNC(=O)c1cn2nc(C3CCN(C)CC3)cc2cc1NC(=O)c1cccc(C(F)(F)F)n1` [Compound 12, N-methyl-2-(1-methyl-4-piperidyl)-5-[[6-(trifluoromethyl)pyridine-2-carbonyl]amino]pyrazolo[1,5-a]pyridine-6-carboxamide] returned a 50% inhibitory concentration (IC50) in series [1] (Homo sapiens) of 1000 to 5000 nM. Also, the “Mouse Hepatocyte stability (Perc. remaining at 90 min)” value in the series on Mouse Hepatocyte turned out to be 97.05 Perc.

As to `COc1c(NC(=O)c2cccn(C3CC3)c2=O)cc2cc(CCC(C)(C)O)nn2c1C` [Compound 13, 1-cyclopropyl-N-[2-(3-hydroxy-3-methyl-butyl)-6-methoxy-7-methyl-pyrazolo[1,5-a]pyridin-5-yl]-2-oxo-pyridine-3-carboxamide], in the series on Mouse Hepatocyte, the “Mouse Hepatocyte stability (Perc. remaining at 90 min)” value is 87.8 Perc.

On to `CNC(=O)c1cn2nc(C3CCOCC3)cc2cc1NC(=O)c1cccc(C(F)F)n1` [Compound 15, 5-[[6-(difluoromethyl)pyridine-2-carbonyl]amino]-N-methyl-2-tetrahydropyran-4-yl-pyrazolo[1,5-a]pyridine-6-carboxamide], for which the IC50 in series [1] (Homo sapiens) was greater than 5000 nM.

As to `NC(=O)c1cn2nc(C3CCOCC3)cc2cc1NC(=O)c1cccc(C(F)F)n1` [Compound 16, 5-[[6-(difluoromethyl)pyridine-2-carbonyl]amino]-2-tetrahydropyran-4-yl-pyrazolo[1,5-a]pyridine-6-carboxamide], in the series with Mouse Hepatocyte, the “Mouse Hepatocyte stability (Perc. remaining at 90 min)” value was 51.75 Perc.

With `CCOc1cn2nc(CCC(C)(C)O)cc2cc1NC(=O)c1cccn(C2CC2)c1=O` [Compound 17, 1-cyclopropyl-N-[6-ethoxy-2-(3-hydroxy-3-methyl-butyl)pyrazolo[1,5-a]pyridin-5-yl]-2-oxo-pyridine-3-carboxamide], the half-maximal inhibitory concentration (IC50) in series [1] (Homo sapiens) was 500 to 1000 nM. Moreover, the “Mouse Hepatocyte stability (Perc. remaining at 90 min)” value in the series on Mouse Hepatocyte came to 93 Perc.

Regarding `CC(C)(O)CCc1cc2cc(NC(=O)c3cccc(C(F)F)n3)c(C(N)=O)cn2n1` [Compound 20, 5-[[6-(difluoromethyl)pyridine-2-carbonyl]amino]-2-(3-hydroxy-3-methyl-butyl)pyrazolo[1,5-a]pyridine-6-carboxamide], in the series on Mouse Hepatocyte, the “Mouse Hepatocyte stability (Perc. remaining at 90 min)” value is given as 80.9 Perc.

`COc1cn2nc(CC(F)C(C)(C)O)cc2cc1NC(=O)c1cccn(C2CC2)c1=O` (stereo not drawn) [Compound 22, 1-cyclopropyl-N-[2-(2-fluoro-3-hydroxy-3-methyl-butyl)-6-methoxy-pyrazolo[1,5-a]pyridin-5-yl]-2-oxo-pyridine-3-carboxamide] gave an IC50 in series [1] (Homo sapiens) of 0.1 to 500 nM.

As for `[2H]C([2H])([2H])C(O)(CCc1cc2cc(NC(=O)c3cccn(C4CC4)c3=O)c(OC)cn2n1)C([2H])([2H])[2H]` [Compound 23, 1-cyclopropyl-N-[6-methoxy-2-[4,4,4-trideuterio-3-hydroxy-3-(trideuteriomethyl)butyl]pyrazolo[1,5-a]pyridin-5-yl]-2-oxo-pyridine-3-carboxamide], in series [1] (Homo sapiens), the half-inhibitory concentration (IC50) was 0.1 to 500 nM.

Take `[2H]C([2H])([2H])Oc1cn2nc(CCC(C)(C)O)cc2cc1NC(=O)c1cccn(C2CC2)c1=O` [Compound 24, 1-cyclopropyl-N-[2-(3-hydroxy-3-methylbutyl)-6-(trideuteriomethoxy)pyrazolo[1,5-a]pyridin-5-yl]-2-oxopyridine-3-carboxamide]: the IC50 in series [1] (Homo sapiens) lay within 0.1 to 500 nM.
